Data published in PMC13070491, “Single-nucleus transcriptomics, pharmacokinetics, and pharmacodynamics of CDK4/6 and mTOR inhibition in a Phase 0/1 trial of recurrent high-grade glioma” (Neuro-Oncology, 2025).
pIC50: −log10 of the molar value.

Tests used:
mTOR = conditions: threshold basis for Phase 1 expansion; no reference given; read-out: biochemical IC50; cited from earlier work
pS6 ribosomal protein = assay: IHC of tumor tissue, pS6 ribosomal protein positive cells; assay type: in vivo, human; conditions: 5 days ribociclib + everolimus; paired t-test P > .05
Procedure: Everolimus pharmacodynamic biomarkers were assessed using IHC with the following antibodies: anti-p4EBP1 (Cell Signaling Technology; #2855, 1:500); anti-pS6 ribosomal protein (Cell Signaling -Technology; #4858, 1:100). IHC staining was performed using the BOND RX automated system (Leica Biosystems) as previously described.[8] Stained slides were imaged on a Leica Versa microscope and analyzed with Aperio Image software. Percentage of stain-positive cells was quantified from at least 6 randomly selected regions of interest within the tumor as assessed by a board-certified neuropathologist.

GB239 = assay: Ribociclib-treated in vitro single-cell RNA sequencing, malignant state proportions; assay type: cell-based, human; conditions: ribociclib vs DMSO 5 days
Description: (§1) Patient-derived glioma stem cell lines (GSCs; GB126, GB86, and GB239) were established from resected GBM tumor tissue. Cell lines were genetically profiled for mutations and copy number aberrations using the […] custom gene panel. All cell lines harbored high-level CDK4 amplifications among other alterations. […] The single-cell RNA sequencing data were then processed via cellranger count and Seurat. Briefly, cells were filtered out based on the following criteria: minimum number of genes detected >500 and <10 000 with a maximum percentage of mitochondrial genes set to 10%. Statistical assessment was made between the malignant proportions of each cell state using a 2-sided paired t-test.

GB126 = assay: as above; assay type: cell-based, human; conditions: ribociclib vs DMSO 5 days
Description: as §1

GB86 = assay: as above; assay type: cell-based, human; conditions: ribociclib vs DMSO 5 days
Description: as §1

[1] = tested on: malignant cells of recurrent IDH-wildtype glioblastoma; assay: Single nucleus RNA sequencing of tumor samples, malignant cell state proportions vs standard-of-care cohorts; assay type: in vivo, human
Description: Count matrices were loaded into R using Seurat's (version 4.3.0) Read10X function. Cells were filtered based on the following quality control criteria: number of genes detected greater than 500 and fewer than 10 000; maximum percentage of mitochondrial genes of 5%. DoubletFinder was used to identify potential nuclei doublets, which were filtered out.[17] The expression data were processed by normalization, scaling, PCA based on genes differentially expressed across brain cell types, Harmony batch correction for sample preparation batch,[18] Uniform Manifold Approximation and Projection (UMAP), and clustering using the Louvain algorithm, and resolution set to 0.6. Cell type annotation was based on gene expression markers for each cluster and confirmed via mapping to a normal reference brain atlas (Azimuth). […] (https://github.com/broadinstitute/[…]) was used to confirm malignant status based on the presence of copy number alterations. […] HMM-predicted copy number alteration levels were extracted to define malignant and nonmalignant cells based on the following approach. […] Putative malignant cells not meeting this threshold were labelled as unresolved and excluded. Cells assigned to a nonmalignant gene expression cluster with 25% of chromosome 7 inferred gain and/or 25% of chromosome 10 inferred loss were labelled as unresolved and excluded. Samples with fewer than 25 malignant cells were excluded from malignant state analysis. […] Cell cycle status was assigned independent of […] cell state. Cells were classified as AC-like, etc., along with its cell cycle status-cycling or not.

| SMILES | pIC50 (mTOR) | mTOR pathway activity as quantified by pS6, surgical specimen vs archival tissue (pS6 ribosomal protein) | change in cycling cells (GB239; paired t-test P = 5.4E-4) | AC-like malignant state proportion (GB239; paired t-test P = .03) | MES-like malignant state proportion (GB126) | AC-like malignant state proportion (GB126; paired t-test P = 6.6E-3) | change in cycling cells (GB126; paired t-test P = 8.7E-4) | change in cycling cells (GB86; paired t-test P = .04) | AC-like malignant state proportion (GB86; paired t-test P = .06) | proportion of malignant cells actively cycling vs standard treatment cohorts (snRNAseq) ([1]; n = 17 ribociclib-exposed vs CARE n = 57 and Wang et al. n = 31, P = 3.2E-03 and P = 2.0E-04) | neural progenitor-like (NPC-like) state vs standard treatment cohorts (snRNAseq) ([1]; n = 17 ribociclib-exposed vs CARE n = 57 and Wang et al. n = 31, P = 5.8E-05, P = 1.8E-03) | fraction of NPC-like malignant cells, Phase 2 (104 days) vs Phase 0 (5-day) sample of one patient ([1]; ribociclib monotherapy, single case, snRNAseq) |
| --- | --- | --- | --- | --- | --- | --- | --- | --- | --- | --- | --- | --- |
| CO[C@H]1C[C@@H]2CC[C@@H](C)[C@@](O)(O2)C(=O)C(=O)N2CCCC[C@H]2C(=O)O[C@H]([C@H](C)C[C@@H]2CC[C@@H](OCCO)[C@H](OC)C2)CC(=O)[C@H](C)/C=C(\C)[C@@H](O)[C@@H](OC)C(=O)[C@H](C)C[C@H](C)/C=C/C=C/C=C/1C [Everolimus, everolimus] | 8.70 | – | – | – | – | – | – | – | – | – | – | – |
| CN(C)C(=O)c1cc2cnc(Nc3ccc(N4CCNCC4)cn3)nc2n1C1CCCC1 [Ribociclib, ribociclib] | – | elevated but not significantly different | decrease | increase | increase | increase | decrease | decrease | increase | lower proportion | decrease | reduced fraction |
